Each structure is given as a SMILES string.

For series [1] the following is noted: in vivo; cited from earlier work.
Series [2] relates to entorhinal cortex (EC) slices. The experiment in a line: Low Mg2+ (Mg2+-free) in vitro model of epilepsy: frequency of epileptiform events. Type of series: cell-based, Wistar rats. The settings on record: 10 μM non-liposomal, 15 min wash-in; n=4 slices. The text has this:
In the ‘low Mg^2+’ in vitro model of epilepsy the susceptibility of the entorhinal cortex (EC) to seizure activity is exploited by acutely bathing EC slices in Mg^2+-free artificial cerebrospinal fluid (ACSF). The removal of Mg^2+ from the extracellular environment consequently removes the normal Mg^2+ block on the N-Methyl-D-aspartic acid (NMDA) receptor. […]
Recordings from the tissue chamber were made using Ag/AgCl pellet electrodes (Harvard Apparatus, UK). The signal was collected on a chart recorder (Semat, UK) or digitally recorded (Neurolog, UK). […] Digitally recorded signals were amplified (×100 gain) and high-pass filtered (8.9 Hz cut-off). […] Drugs were applied via the perfusate (Mg^2+-free ACSF) and the frequency of epileptiform events (SLEs or LRDs) were measured before and during drug application. […]
To determine the effect of control drug solutions on the frequency of epileptiform activity, the frequency of events 30 min (in most cases) prior to drug application (pre-drug) was compared with the frequency of events during the wash-in period (15 min). For the drug delivered in liposomes, in addition to the frequency of pre-drug events and during wash-in, the frequency of events during 30 min immediately after the application of the ultrasound trigger was also quantified. […]

Turning to `N[C@@H](Cc1ccc(O)c(O)c1)C(=O)O` [levodopa], in series [1], the “fraction crossing the blood-brain barrier” value was 5-10%.

On to `NCc1cc(O)no1` [muscimol, 5-(aminomethyl)-isoxazol-3-ol], for which the “reduction in epileptiform activity” value in series [2] is 85%±14.

These data come from patent US12329815B2, “Acoustic driven drug delivery systems” (UNIVERSITY OF OTAGO, priority 2015, dated 2025).
